According to patent publication US11478445B2, “Method for treating acute myeloid leukemia” (Bionomics Limited, priority 2017, dated 2022):
“Also recorded” adds a separate entry of the source.

What was measured:
AML cell lines = assay: Total ROS assay (CM-H2DCFDA, flow cytometry); assay type: cell-based
Method: 1.25×10^5 cells were harvested into 5 mL tubes and washed with PBS. […] All tubes were incubated at 37° C. for 20 min and then cells washed 3 times with PBS. Cells were resuspended in 300 μL PBS and analysed on an LSRFortessa (BD Biosciences) flow cytometer. Results were analysed with FCS Express 4 Flow Research Edition software (De Novo Software).
For that, cells were plated at 10^6 cells/mL and treated with vehicle (DMSO) alone or a range of doses of EX 1 (0.1 nM, 1 nM, 10 nM and 100 nM) for 6 h, 8 h and 24 h. Cells were harvested for detection of ROS and superoxide anion (O2^·−) levels at 6 h and 24 h, for protein extraction at 8 h and 24 h, and for cell cycle analysis at 24 h.
Total ROS levels were measured by flow cytometry using the fluorogenic dye CM-H2DCFDA at a final concentration of 5 μM. Mitochondria superoxide anion (O2^·−) levels were measured by flow cytometry using MitoSox, also at a final concentration of 5 μM.

Noxa = assay: Western blot for Noxa in AML cell lines; assay type: cell-based; details: six AML cell lines, 10 nM and 100 nM, 8 h
Method: Cells were harvested (4×10^6 for cell lines and 7×10^6 for L-AMLs) and washed 3 times with cold PBS (centrifuged at 4° C.). Lysis buffer was prepared with NP40 Cell Lysis Buffer (ThermoFisher Scientific), cOmplete protease inhibitor (Roche, 046993116001), PhosStop (Roche, 04906837001) and Pefablock (Roche, 11585916001) at the recommended concentrations. After the washes, cells were resuspended in 50 μL of lysis buffer, vortexed and incubated on ice for 30 min. Samples were vortexed every 10 min. After 30 min incubation, samples were centrifuged at 14,000 g at 4° C. for 10 min and supernatants were transferred to tubes. Protein was quantified using the DC Protein Assay kit (BioRad) per manufacturer's protocol. 50 μg of cell lines lysate or 20 μg of L-AML6 lysate were loaded for SDS-PAGE. Protein was transferred from the gels into PVDF membranes using a semi dry transfer apparatus (BioRad). […]
Once it was determined that this group of AML cell lines are highly sensitive to EX 1, the mechanism underlying this response was investigated. […]
Therefore, cells were treated with a range of doses of EX 1 for 8 h and 24 h, as described above, before protein extraction was performed. […] Noxa was readily detected in control lysate prepared from HEK293 cells.

HL-60 AML cell line = assay: MTS proliferation assay, HL-60; assay type: cell-based
Method: (§1) The cell lines (MV4; 11 and HL-60) were plated in 96-well plates at 1×10^4 cells/well in 50 uL of complete growth media. Cells were plated in triplicate wells for each dose being tested. EX 1 (in DMSO), Oxi4503 (EndoTherm, Batch #EN09013, in water), CA4P (Selleckchem, Cat #S7204, in water) and Plinabulin (Selleckchem, Cat #S1176, in DMSO) was reconstituted immediately prior to use at 10 mM in appropriate diluent as indicated. The drug was prepared 2× concentrated in media and 50 uL added to respective wells (0.1% DMSO or water, final concentration). After 72 hours, 20 μL of CellTiter 96 AQueous One Solution reagent (Promega cat #G3581) was added to each well and the plate incubated for 2 h at 37° C. before absorbance was measured at 492 nm using a Thermo Multiskan Ascent96/384 Plate Reader.
(§2) To compare the efficacy of EX 1 with other tubulin polymerisation inhibitors, MTS proliferation assays were performed on MV4; 11 and HL-60 AML cell lines (Table 1). […] Cells were cultured with the compounds for 72 hours before viability was measured by the addition of CellTiter 96 AQueous One Solution reagent (Promega cat #G3581) and absorbance measured at 492 nm. IC50 was calculated using the absolute IC50 method in GraphPad Prism 6.

MV4; 11 AML cell line = assay: MTS proliferation assay, MV4;11; assay type: cell-based
Method: as §1, §2

[1] = test system: chronic lymphocytic leukaemia (CLL) cells; details: Bates et al. 2016; cited from earlier work

COc1cc(C(=O)c2c(C)oc3c(O)c(OC)ccc23)cc(OC)c1OC [EX 1, 2-Methyl-7-hydroxy-3-(3,4,5-trimethoxybenzoyl)-6-methoxybenzofuran]
total ROS levels (AML cell lines; OCI-AML3, 24 h): dose response reduction in total ROS
total ROS levels (AML cell lines; the other cell lines (not OCI-AML3), 6 h and 24 h): none of the other cell lines showed any changes in total ROS levels
Noxa induction (Noxa): could only be detected in OCI-AML3 and ME1; also recorded: only observed in OCI-AML3 and ME1 lines
IC50 compared with Oxi4503, CA4P and Plinabulin (HL-60 AML cell line; HL-60, 72 h): lowest IC50
potency relative to any other VDAs (times more potent) (HL-60 AML cell line; HL-60, 72 h exposure): at least 10 times
potency relative to any other VDAs (times more potent) (MV4; 11 AML cell line; MV4-11, 72 h exposure): at least 10 times
IC50 compared with Oxi4503, CA4P and Plinabulin (MV4; 11 AML cell line; MV4;11, 72 h): lowest IC50
apoptosis via P-JNK and Noxa [1]: induce apoptosis
